Experimental data published in ChEMBL document CHEMBL5537154, “Smart glypican-3-targeting peptide-chlorin e6 conjugates for targeted photodynamic therapy of hepatocellular carcinoma” (Eur J Med Chem, 2024).
Calls of active or inactive are those of the source. No cut-off for these calls is given here. Peptide text beside a SMILES is read from it.

Experiments:
HeLa [1] = assay: Antiproliferative activity against human HeLa cells under 10 J/cm2 light irradiation at 660 nm by CCK8 assay; assay type: functional, cell-based; conditions: light or radiation study
[2] = Antiproliferative activity against human HUVEC cells under dark condition by CCK8 assay; assay type: toxicity, cell-based
Huh-7 [3] = assay: Antiproliferative activity against human Huh-7 cells under dark condition by CCK8 assay; assay type: functional, cell-based
[4] = Aggregation property of compound in PBS; assay type: physicochemical; conditions: buffer
HepG2 [5] = assay: Antiproliferative activity against human HepG2 cells under dark condition by CCK8 assay; assay type: functional, cell-based
HepG2 [6] = assay: Antiproliferative activity against human HepG2 cells under 10 J/cm2 light irradiation at 660 nm by CCK8 assay; assay type: functional, cell-based; conditions: HepG2, light or radiation study
[7] = Photostability of compound under 250 mW/cm2 light irradiation at 660 nm incubated for 10 mins by UV spectrophotometry; assay type: physicochemical; conditions: 0.66 µM
[8] = Partition coefficient, logP of compound; assay type: physicochemical; conditions: octanol/water
MCF7 [9] = assay: Antiproliferative activity against human MCF7 cells under 10 J/cm2 light irradiation at 660 nm by CCK8 assay; assay type: functional, cell-based; conditions: MCF7, light or radiation study
HeLa [10] = assay: Antiproliferative activity against human HeLa cells under dark condition by CCK8 assay; assay type: functional, cell-based
Huh-7 [11] = assay: Antiproliferative activity against human Huh-7 cells under 10 J/cm2 light irradiation at 660 nm by CCK8 assay; assay type: functional, cell-based; conditions: Huh-7, light or radiation study
chymotrypsin = chymotrypsin (Homo sapiens, UniProt P17538+P40313+Q6GPI1+Q99895); assay: Stability of compound assessed as chymotrypsin (unknown origin)-mediated compound degradation in PBS at pH 7.4 by measuring half life; assay type: ADME, protein assay
[12] = Antiproliferative activity against human HUVEC cells under 10 J/cm2 light irradiation at 660 nm by CCK8 assay; assay type: toxicity, cell-based
MCF7 [13] = assay: Antiproliferative activity against human MCF7 cells under dark condition by CCK8 assay; assay type: functional, cell-based
[14] = […] assessed as decrease in fluorescence intensity of DMA; assay type: functional
[15] = Toxicity in BALB/C nude mouse model xenografted with human HepG2 cells assessed as change in kidney weight at 1 uM/kg, iv administered every two days for 21 days along with 250 mW/cm2 light irradiation at 660 nm for 10 mins at 1 hr post-compound administration; assay type: organism-based; conditions: in vivo, 505.17 h, time 505.166 hrs
[16] = Drug distribution in tumor of BALB/C nude mouse model xenografted with human HepG2 cells at 1 to 2 uM/kg, iv measured after 2 hrs by fluorescence imaging analysis; assay type: ADME, organism-based, Neoplasm; conditions: in vivo, dose 1-2 µM/Kg
[17] = Toxicity in BALB/C nude mouse model xenografted with human HepG2 cells assessed as damage in heart at 1 uM/kg, iv administered every two days for 21 days along with 250 mW/cm2 light irradiation at 660 nm for 10 mins at 1 hr post-compound administration by H and E staining based analysis; assay type: organism-based; conditions: in vivo, 505.17 h, time 505.166 hrs
[18] = Toxicity in BALB/C nude mouse model xenografted with human HepG2 cells assessed as change in heart weight at 1 uM/kg, iv administered every two days for 21 days along with 250 mW/cm2 light irradiation at 660 nm for 10 mins at 1 hr post-compound administration; assay type: organism-based; conditions: in vivo, 505.17 h, time 505.166 hrs
[19] = Toxicity in BALB/C nude mouse model xenografted with human HepG2 cells assessed as damage in lung at 1 uM/kg, iv administered every two days for 21 days along with 250 mW/cm2 light irradiation at 660 nm for 10 mins at 1 hr post-compound administration by H and E staining based analysis; assay type: organism-based; conditions: in vivo, 505.17 h, time 505.166 hrs
HepG2 [20] = assay: Induction of ROS generation in human HepG2 cells at 10 uM incubated for 24 hrs by DCFH-DA probe based flow cytometry; assay type: functional, cell-based
Glypican-3 = Glypican-3 (Homo sapiens, UniProt P51654); assay: Binding affinity to GPC3 (unknown origin) assessed as dissociation constant by fluorescence polarization assay
[21] = Drug distribution in tumor of BALB/C nude mouse model xenografted with human HepG2 cells at 1 to 2 uM/kg, iv measured for 1 to 4 hrs by fluorescence imaging analysis; assay type: ADME, organism-based, Neoplasm; conditions: in vivo, dose lower 1 µM/Kg, time lower 1 hrs, dose upper 2 µM/Kg, time upper 4 hrs
[22] = Toxicity in BALB/C nude mouse model xenografted with human HepG2 cells assessed as change in liver weight at 1 uM/kg, iv administered every two days for 21 days along with 250 mW/cm2 light irradiation at 660 nm for 10 mins at 1 hr post-compound administration; assay type: organism-based; conditions: in vivo, 505.17 h, time 505.166 hrs
[23] = Toxicity in BALB/C nude mouse model xenografted with human HepG2 cells assessed as drug tolerance at 1 uM/kg, iv administered every two days for 21 days along with 250 mW/cm2 light irradiation at 660 nm for 10 mins at 1 hr post-compound administration; assay type: organism-based; conditions: in vivo, 505.17 h, time 505.166 hrs
[24] = Toxicity in BALB/C nude mouse model xenografted with human HepG2 cells assessed as body weight loss at 1 uM/kg, iv administered every two days for 21 days along with 250 mW/cm2 light irradiation at 660 nm for 10 mins at 1 hr post-compound administration; assay type: organism-based; conditions: in vivo, 505.17 h, time 505.166 hrs
[25] = Toxicity in BALB/C nude mouse model xenografted with human HepG2 cells assessed as change in lung weight at 1 uM/kg, iv administered every two days for 21 days along with 250 mW/cm2 light irradiation at 660 nm for 10 mins at 1 hr post-compound administration; assay type: organism-based; conditions: in vivo, 505.17 h, time 505.166 hrs
[26] = Drug distribution in BALB/C nude mouse model xenografted with human HepG2 cells at 1 to 2 uM/kg, iv measured after 1 hr by fluorescence imaging analysis; assay type: ADME, organism-based; conditions: in vivo, dose 1-2 µM/Kg
[27] = Toxicity in BALB/C nude mouse model xenografted with human HepG2 cells assessed as change in spleen weight at 1 uM/kg, iv administered every two days for 21 days along with 250 mW/cm2 light irradiation at 660 nm for 10 mins at 1 hr post-compound administration; assay type: organism-based; conditions: in vivo, 505.17 h, time 505.166 hrs
HepG2 [28] = assay: Antitumor activity in human HepG2 cells xenografted in BALB/C nude mouse model assessed as tumor growth inhibition at 1 uM/kg, iv administered every two days for 21 days along with 250 mW/cm2 light irradiation at 660 nm for 10 mins at 1 hr post-compound administration relative to control; assay type: functional; conditions: time 505.166 hrs, 505.17 h, at 1 µmol/kg
[29] = Toxicity in BALB/C nude mouse model xenografted with human HepG2 cells assessed as damage in spleen at 1 uM/kg, iv administered every two days for 21 days along with 250 mW/cm2 light irradiation at 660 nm for 10 mins at 1 hr post-compound administration by H and E staining based analysis; assay type: organism-based; conditions: in vivo, 505.17 h, time 505.166 hrs
[30] = Toxicity in BALB/C nude mouse model xenografted with human HepG2 cells assessed as damage in liver at 1 uM/kg, iv administered every two days for 21 days along with 250 mW/cm2 light irradiation at 660 nm for 10 mins at 1 hr post-compound administration by H and E staining based analysis; assay type: organism-based; conditions: in vivo, 505.17 h, time 505.166 hrs
[31] = Toxicity in BALB/C nude mouse model xenografted with human HepG2 cells assessed as damage in kidney at 1 uM/kg, iv administered every two days for 21 days along with 250 mW/cm2 light irradiation at 660 nm for 10 mins at 1 hr post-compound administration by H and E staining based analysis; assay type: organism-based; conditions: in vivo, 505.17 h, time 505.166 hrs
MCF7 [32] = assay: Antitumor activity against human MCF7 cells xenografted in BALB/C nude mouse model assessed as decrease in tumor growth at 1 uM/kg, iv administered every two days for 21 days along with 250 mW/cm2 light irradiation at 660 nm for 10 mins at 1 hr post-compound administration; assay type: functional, organism-based; conditions: time 505.166 hrs
HepG2 [33] = assay: Induction of ROS generation in human HepG2 cells at 10 uM preincubated for 24 hrs followed by DCFH-DA probe addition and further incubated under dark condition for 20 mins prior and 20 mins post- light irradiation of 10 J/cm2 at 660 nm by flow cytometry; assay type: functional, cell-based; conditions: time 24.66 hrs
[34] = Drug uptake in human MCF7 cells incubated for 2 hrs by fluorescence based assay; assay type: ADME, cell-based; conditions: mcf7, 2 h
[35] = Drug uptake in human HUVEC cells at 500 nM incubated for 0.5 hrs by flow cytometry; assay type: ADME, cell-based; conditions: 0.5 µM

Glypican-3, sequence (P51654 25-358 limits assumed): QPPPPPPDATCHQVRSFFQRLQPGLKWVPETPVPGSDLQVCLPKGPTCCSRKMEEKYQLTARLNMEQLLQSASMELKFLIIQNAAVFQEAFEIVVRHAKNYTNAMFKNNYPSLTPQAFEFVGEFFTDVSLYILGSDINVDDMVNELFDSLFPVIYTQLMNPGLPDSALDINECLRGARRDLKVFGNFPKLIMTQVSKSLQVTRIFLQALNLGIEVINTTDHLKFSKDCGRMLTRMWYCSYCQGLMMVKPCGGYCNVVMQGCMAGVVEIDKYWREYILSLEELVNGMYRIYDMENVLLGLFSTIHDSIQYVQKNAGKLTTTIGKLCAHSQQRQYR
Glypican-3, sequence (P51654 359-554 limits assumed): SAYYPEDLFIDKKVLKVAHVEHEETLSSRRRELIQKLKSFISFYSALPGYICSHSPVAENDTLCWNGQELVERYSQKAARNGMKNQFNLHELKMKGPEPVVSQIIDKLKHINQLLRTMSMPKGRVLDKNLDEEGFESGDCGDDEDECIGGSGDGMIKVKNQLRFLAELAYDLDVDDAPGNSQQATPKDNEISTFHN

**Q.** With `C=Cc1c(C)c2cc3nc(c(CC(=O)O)c4[nH]c(cc5nc(cc1[nH]2)C(C)=C5CC)c(C)c4C(=O)NCCCC(=O)N[C@@H](CCCNC(=N)N)C(=O)N[C@@H](CC(C)C)C(=O)N[C@@H](CC(N)=O)C(=O)N[C@H](C(=O)NCC(=O)NCC(=O)N[C@H](C(=O)N[C@@H](Cc1ccc(O)cc1)C(=O)N[C@@H](Cc1ccccc1)C(=O)N[C@@H](CC(C)C)C(=O)N[C@H](C(=O)N[C@H](C(=O)N[C@@H](CCCNC(=N)N)C(=O)N[C@@H](CCC(N)=O)C(=O)O)[C@@H](C)O)[C@@H](C)O)[C@@H](C)O)C(C)C)[C@@H](CCC(=O)O)[C@@H]3C` (HELM PEPTIDE1{[C=Cc1c(C)c2cc3nc(c(CC(=O)O)c4[nH]c(cc5nc(cc1[nH]2)C(C)=C5CC)c(C)c4C(=O)[*:2])[C@@H](CCC(=O)O)[C@@H]3C].[O=C(CCCN[*:1])[*:2]].R.L.N.V.G.G.T.Y.F.L.T.T.R.Q}$$$$V2.0) as the molecule, how does the IC50 (HeLa [1]) read?
**A.** 0.72 µM

**Q.** And the IC50 [2]?
**A.** > 200 µM

**Q.** And the IC50 (Huh-7 [3])?
**A.** > 100 µM

**Q.** What about the Activity [4] of the same molecule?
**A.** Active

**Q.** What about the IC50 (HepG2 [5]) of the same molecule?
**A.** > 100 µM

**Q.** What about the IC50 (HepG2 [6]) of the same molecule?
**A.** 0.31 µM

**Q.** What about the Stability [7] of the same molecule?
**A.** Stable

**Q.** And the logP [8]?
**A.** 0.8

**Q.** What about the IC50 (MCF7 [9]) of the same molecule?
**A.** 0.88 µM

**Q.** What about the IC50 (HeLa [10]) of the same molecule?
**A.** > 100 µM

**Q.** What about the IC50 (Huh-7 [11]) of the same molecule?
**A.** 0.25 µM

**Q.** And the half-life (chymotrypsin)?
**A.** 2.4 h

**Q.** And the IC50 [12]?
**A.** 2.1 µM

**Q.** What about the IC50 (MCF7 [13]) of the same molecule?
**A.** > 100 µM

**Q.** For `C=Cc1c(C)c2cc3nc(c(CC(=O)O)c4[nH]c(cc5nc(cc1[nH]2)C(C)=C5CC)c(C)c4C(=O)O)[C@@H](CCC(=O)O)[C@@H]3C` [CHLORIN E6], which Activity [14] is on record?
**A.** Active

**Q.** What about the IC50 (HeLa [1]) of the same molecule?
**A.** > 10 µM

**Q.** What about the Activity [15] of the same molecule?
**A.** Non-Toxic

**Q.** What about the Drug uptake [16] of the same molecule?
**A.** Not Active

**Q.** And the Activity [17]?
**A.** Non-Toxic

**Q.** What about the IC50 [2] of the same molecule?
**A.** > 200 µM

**Q.** And the Activity [18]?
**A.** Non-Toxic

**Q.** What about the Activity [19] of the same molecule?
**A.** Non-Toxic

**Q.** And the IC50 (Huh-7 [3])?
**A.** > 100 µM

**Q.** And the Activity (HepG2 [20])?
**A.** inactive

**Q.** What about the Activity [4] of the same molecule?
**A.** Active

**Q.** And the Kd (Glypican-3)?
**A.** > 10 µM

**Q.** What about the Drug uptake [21] of the same molecule?
**A.** Active

**Q.** And the IC50 (HepG2 [5])?
**A.** > 100 µM

**Q.** What about the IC50 (HepG2 [6]) of the same molecule?
**A.** 16 µM

**Q.** What about the Activity [22] of the same molecule?
**A.** Non-Toxic

**Q.** And the Activity [23]?
**A.** Non-Toxic

**Q.** What about the IC50 (MCF7 [9]) of the same molecule?
**A.** > 10 µM

**Q.** And the Activity [24]?
**A.** Non-Toxic

**Q.** And the Activity [25]?
**A.** Non-Toxic

**Q.** What about the IC50 (HeLa [10]) of the same molecule?
**A.** > 100 µM

**Q.** What about the Drug uptake [26] of the same molecule?
**A.** Active

**Q.** What about the IC50 (Huh-7 [11]) of the same molecule?
**A.** 18 µM

**Q.** What about the Activity [27] of the same molecule?
**A.** Non-Toxic

**Q.** What about the TGI (HepG2 [28]) of the same molecule?
**A.** 71.3%

**Q.** And the Activity [29]?
**A.** Non-Toxic

**Q.** What about the Activity [30] of the same molecule?
**A.** Non-Toxic

**Q.** What about the IC50 [12] of the same molecule?
**A.** > 10 µM

**Q.** What about the IC50 (MCF7 [13]) of the same molecule?
**A.** > 100 µM

**Q.** And the Activity [31]?
**A.** Non-Toxic

**Q.** And the Activity (MCF7 [32])?
**A.** Active

**Q.** And the Activity (HepG2 [33])?
**A.** Active

**Q.** And the Drug uptake [34]?
**A.** Active

**Q.** What about the Drug uptake [35] of the same molecule?
**A.** Active
